# Reference: PMC6555543 (PLoS Pathogens, 2019)
# How the values were obtained:
# [1] = biological target: T1, RVFV CBD (CBD13, RVFV L protein cap-binding domain) (Rift Valley fever virus, UniProt A2SZS3); assay: biochemical
# [2] = biological target: T1, RVFV CBD (CBD13, RVFV L protein cap-binding domain); settings: 1-10 mM ligand, 15 μM protein, 20 mM Na-phosphate pH 6.5, 100 mM NaCl
# [3] = biological target: T1, RVFV CBD (CBD13, RVFV L protein cap-binding domain); settings: 25°C, 50 mM Na-phosphate pH 6.5, 150 mM NaCl, 10% glycerol; 9.8 mM GTP in syringe, 194 μM protein
# T1 sequence (A2SZS3 1706-1822 limits assumed): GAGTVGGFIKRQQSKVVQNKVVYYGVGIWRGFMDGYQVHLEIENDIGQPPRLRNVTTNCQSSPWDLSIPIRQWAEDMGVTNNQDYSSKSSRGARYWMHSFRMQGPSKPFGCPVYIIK
structure (smiles),measurement,setting,value
C[n+]1cn([C@@H]2O[C@H](COP(=O)(O)OP(=O)(O)OP(=O)(O)O)[C@@H](O)[C@H]2O)c2nc(N)[nH]c(=O)c21 [m^7GTP],Kd,[1],~737 µM
Nc1ncnc2c1ncn2[C@@H]1O[C@H](COP(=O)(O)OP(=O)(O)OP(=O)(O)O)[C@@H](O)[C@H]1O [ATP],ΔTm,[2],no or even negative effects on protein stability after addition of GTP or ATP
Nc1nc2c(ncn2[C@@H]2O[C@H](COP(=O)(O)OP(=O)(O)OP(=O)(O)O)[C@@H](O)[C@H]2O)c(=O)[nH]1 [GTP],KD,[3],For GTP the KD is too high to be determined by ITC
